We go through 4 compounds from ChEMBL document CHEMBL1201862, “PubChem BioAssay data set” (2004).

Test systems include A498; A549; EKVX; HCC 2998; HCT-15; HOP-62; K562; M14; NCI/ADR-RES; OVCAR-3; OVCAR-4; OVCAR-8; PC-3; RXF 393; SK-MEL-5; SR; TK-10; U-251; UACC-257; UO-31.
What all share (assay): NCI anticancer screen, dose series, 48 h

The structures appear in SMILES notation.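 48-hour exposure; five concentrations; linearly interpolated endpoints. Here, GI50 denotes the concentration required for 50% inhibition of growth.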 The source made the active and inactive calls. No stated cut-off is given here; in the data, active = GI50 up to about 1.1 µM and inactive = higher. Where only a bound is given, the exact number is not on record here.

`N=C(N)c1ccc(/C=C/c2ccc(C(=N)N)cc2)cc1`: the GI50 in the test with A498 was 14.9 µM (inactive); with A549, 39.7 µM (inactive); in the test on EKVX, 46.3 µM (inactive); in the test on HCC 2998, 90.8 µM (inactive); with HCT-15, above 100 µM; in the test on HOP-62, 41.2 µM (inactive). In addition, the GI50 in the test on K562 was 49.8 µM (inactive); with M14, > 100 µM (inactive); with NCI/ADR-RES, 77.3 µM (inactive); in the test on OVCAR-3, > 100 µM (inactive); with OVCAR-4, > 100 µM (inactive); in the test on OVCAR-8, 85.7 µM (inactive). For the same compound, the GI50 is 64.9 µM (inactive) with PC-3; > 100 µM (inactive) in the test with RXF 393; 29.1 µM (inactive) in the test with SK-MEL-5; > 100 µM (inactive) with SR; 24.5 µM (inactive) with TK-10; 33.5 µM (inactive) with U-251. Also, the GI50 in the test with UACC-257 was 65.9 µM (inactive); in the test with UO-31, > 100 µM (inactive).
`CCOC(=O)N1CCN(Cc2cc(=O)n3ccc(C)cc3n2)CC1`: the GI50 is > 100 µM (inactive) with A498; > 100 µM (inactive) with A549; > 100 µM (inactive) in the test with EKVX; > 100 µM (inactive) in the test with HCC 2998; above 100 µM in the test with HCT-15; > 100 µM (inactive) in the test on HOP-62. Further, the GI50 with K562, in the test on M14, with NCI/ADR-RES, in the test with OVCAR-3, in the test on OVCAR-4 and in the test with OVCAR-8 was > 100 µM (inactive) in each case. Further, the GI50 with PC-3, in the test with RXF 393, with SK-MEL-5, with SR, in the test with TK-10 and in the test with U-251 was > 100 µM (inactive) throughout. For the same compound, the GI50 in the test on UACC-257 and in the test with UO-31 was > 100 µM (inactive) in each case.
Consider `O=[N+]([O-])C1=Cc2c(O)ccc(O)c2C2c3ccccc3NC12` (stereo not given), for which the GI50 in the test on A498 was 14.7 µM (inactive); in the test with A549 it was 17.3 µM (inactive); in the test with EKVX, 14.8 µM (inactive); with HCC 2998, 7.52 µM (inactive); with HCT-15, 13 µM; in the test on HOP-62 it was 11.3 µM (inactive). The GI50 with K562 was 9.27 µM (inactive); in the test on M14 it was 13.2 µM (inactive); in the test on NCI/ADR-RES it was 7.43 µM (inactive); with OVCAR-3, 5.81 µM (inactive); in the test with OVCAR-4, 16 µM (inactive); with OVCAR-8 it was 5.82 µM (inactive). In addition, the GI50 is 6.3 µM (inactive) in the test with PC-3; 13.2 µM (inactive) with RXF 393; 12.8 µM (inactive) with SK-MEL-5; 13.5 µM (inactive) with SR; 16.1 µM (inactive) in the test with TK-10; 12.9 µM (inactive) in the test on U-251. In addition, the GI50 in the test on UACC-257 is 13.9 µM (inactive); with UO-31, 5.33 µM (inactive).
For the compound `CCOC(=O)C(C(N)=O)C1=Nc2cc([N+](=O)[O-])ccc2N/C1=C\C(=O)c1ccccc1` (stereo not given), the GI50 in the test with A498 is 16.6 µM (inactive); in the test with A549, 17.3 µM (inactive); with EKVX it was 20.6 µM (inactive); in the test on HCC 2998, 10.1 µM (inactive); with HCT-15 it was 12.6 µM; in the test with HOP-62 it was 10.9 µM (inactive). The GI50 was 3.82 µM (inactive) in the test with K562; 14.7 µM (inactive) in the test with M14; 16.8 µM (inactive) with NCI/ADR-RES; 10.3 µM (inactive) in the test with OVCAR-3; 18.7 µM (inactive) with OVCAR-4; 16.4 µM (inactive) in the test with OVCAR-8. For the same compound, the GI50 is 15.5 µM (inactive) in the test with PC-3; 17.7 µM (inactive) in the test with RXF 393; 16.7 µM (inactive) in the test with SK-MEL-5; 3.3 µM (inactive) in the test on SR; 11 µM (inactive) with TK-10; 11.3 µM (inactive) in the test on U-251. For the same compound, the GI50 with UACC-257 was 19.8 µM (inactive); in the test on UO-31 it was 19.5 µM (inactive).
